Assay results published in ChEMBL document CHEMBL1137425, “Design, synthesis and evaluation of novel uracil amino acid conjugates for the inhibition of Trypanosoma cruzi dUTPase” (Bioorg Med Chem Lett, 2006).

How the values were obtained:
[1] = target: T1, Deoxyuridine triphosphatase (Trypanosoma cruzi (strain CL Brener), UniProt Q4DI50); assay: Inhibition of Trypanosoma cruzi dUTPase at 1 mM
T1 sequence (Q4DI50 whole entry): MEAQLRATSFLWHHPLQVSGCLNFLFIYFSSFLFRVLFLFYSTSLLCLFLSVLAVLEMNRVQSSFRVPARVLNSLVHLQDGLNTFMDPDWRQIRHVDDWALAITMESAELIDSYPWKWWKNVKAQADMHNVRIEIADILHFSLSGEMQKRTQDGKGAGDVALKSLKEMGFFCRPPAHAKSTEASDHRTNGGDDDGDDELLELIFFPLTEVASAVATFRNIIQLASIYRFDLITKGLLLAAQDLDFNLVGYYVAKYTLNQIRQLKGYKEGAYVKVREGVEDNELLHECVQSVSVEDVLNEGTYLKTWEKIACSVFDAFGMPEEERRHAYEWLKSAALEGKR

[2] = system: Trypanosoma cruzi; assay: Antitrypanosomal activity against Trypanosoma cruzi; type: functional, organism-based
[3] = system: L6; assay: Cytotoxicity against rat L6 cells; type: functional, cell-based

Ki [1] [µM]	IC50 [2] [µM]	SMILES	IC50 [3] [µM]
> 1000	> 84	C[C@H](NC(=O)Cn1ccc(=O)[nH]c1=O)C(=O)N[C@@H](CC(=O)O)C(=O)O	> 252
> 1000	> 81	C[C@H](NC(=O)Cn1ccc(=O)[nH]c1=O)C(=O)N[C@@H](CCC(=O)O)C(=O)O	210
> 1000	> 74	C[C@H](NC(=O)Cn1ccc(=O)[nH]c1=O)C(=O)N[C@@H](Cc1ccc(O)cc1)C(=O)O	214
> 1000	> 87	C[C@H](NC(=O)Cn1ccc(=O)[nH]c1=O)C(=O)N[C@H](C(=O)O)[C@@H](C)O	> 262
> 1000	> 84	NCCCC[C@H](NC(=O)CNC(=O)Cn1ccc(=O)[nH]c1=O)C(=O)O	> 253
> 1000	> 81	C[C@H](NC(=O)Cn1ccc(=O)[nH]c1=O)C(=O)N[C@@H](CCC(N)=O)C(=O)O	> 243
> 1000	> 100	C[C@H](NC(=O)Cn1ccc(=O)[nH]c1=O)C(=O)NCC(=O)O	> 301
> 1000	> 81	C[C@H](NC(=O)Cn1ccc(=O)[nH]c1=O)C(=O)N[C@@H](CCCCN)C(=O)O	> 243

The remaining lines, values behind:

SMILES	Ki [1] [µM]	IC50 [2] [µM]	IC50 [3] [µM]
O=C(Cn1ccnc1[N+](=O)[O-])NCc1ccccc1 [BENZNIDAZOLE]	–	1.04	–
O=C(O)CNC(=O)Cn1ccc(=O)[nH]c1=O	> 1000	> 132	> 396
C[C@@H](O)[C@H](NC(=O)CNC(=O)Cn1ccc(=O)[nH]c1=O)C(=O)O	> 1000	> 91	> 274
COc1cc([C@@H]2c3cc4c(cc3[C@H](O)[C@H]3COC(=O)[C@H]23)OCO4)cc(OC)c1OC [PODOFILOX]	–	–	0.15
O=c1ccn([C@H]2C[C@H](O)[C@@H](COP(=O)(O)O)O2)c(=O)[nH]1 [DEOXYURIDINE MONOPHOSPHATE]	18.4	–	–
O=C(Cn1ccc(=O)[nH]c1=O)NCC(=O)N[C@@H](Cc1ccc(O)cc1)C(=O)O	> 1000	> 76	> 230
